Assay results: patent publication US20080207683A1, “BIARYL-S[…]-PYRAZOLO-PYRIDINE MODULATORS OF CATHEPSIN S” (priority 2007, published 2008)

These compounds were tested against T1, Human CatS (Homo sapiens, UniProt P25774) (assay: CatS inhibition of hydrolysis of fluorescent substrate Z-Val-Val-Arg-AFC). Details: apparent Ki, Morrison equation fit of initial rates; 10 μM Z-Val-Val-Arg-AFC, pH 5.0, 1.5 nM CatS; read-out: CatS Ki^app.
T1 construct: made in house; host or cells: Sf9 insect cells (baculovirus vector pFB+HT)
Type: biochemical
Protocol: Human CatS was cloned into pFB+HT (from Stratagene clone), expressed in Sf9 cells, and purified over a Ni column. Fractions were concentrated and activated at pH 4.0 for 6 hr and then purified over a thiopropylsepharose column and eluted with 1×TBS, 500 mM NaCl, 1 mM EDTA, 25 mM DTT pH 7.6. Glycerol (50%) was added in a 1:1 (vol/vol) ratio (25% glycerol final) and protein was stored at −80° C. in 5 μL aliquots. […] The increase in fluorescence over time was monitored using λexcitation=400 nm and λemission=505 nm.
In equation 1, v is the initial rate measured in the presence of [I]0, the inhibitor concentration, using an enzyme concentration [E]0. v0 is the initial rate measured in the absence of inhibitor.

T1 sequence (P25774 115-331): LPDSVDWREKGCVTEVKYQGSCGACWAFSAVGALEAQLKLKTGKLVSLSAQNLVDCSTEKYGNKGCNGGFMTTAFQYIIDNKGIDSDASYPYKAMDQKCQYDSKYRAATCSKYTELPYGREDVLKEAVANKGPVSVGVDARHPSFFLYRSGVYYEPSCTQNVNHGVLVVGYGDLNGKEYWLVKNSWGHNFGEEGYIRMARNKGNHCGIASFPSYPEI

| SMILES | Ki |
| --- | --- |
| CS(=O)(=O)N1CCc2c(c(-c3ccc(Cl)c(-c4cccc(C(=O)NCCN5CCc6cc(F)ccc65)c4)c3)nn2CCCN2CCCC2)C1 [Example 8, 2′-Chloro-5′-[5-methanesulfonyl-1-(3-pyrrolidin-1-yl-propyl)-4,5,6,7-tetrahydro-1H-pyrazolo[4,3-c]pyridin-3-yl]-biphenyl-3-carboxylic acid [2-(5-fluoro-2,3-dihydro-indol-1-yl)-ethyl]-amide] | 237 nM |
| CC(=O)N1CCc2c(c(-c3ccc(Cl)c(-c4cccc(C(=O)N[C@@H](C)CN5CCc6cc(F)ccc65)c4)c3)nn2CCCN2CCCC2)C1 [Example 36, (S)-5′-[5-Acetyl-1-(3-pyrrolidin-1-yl-propyl)-4,5,6,7-tetrahydro-1H-pyrazolo[4,3-c]pyridin-3-yl]-2′-chloro-biphenyl-3-carboxylic acid [2-(5-fluoro-2,3-dihydro-indol-1-yl)-1-methyl-ethyl]-amide] | 736 nM |
| C[C@@H](CN1CCc2cc(F)ccc21)NC(=O)c1cccc(-c2cc(-c3nn(CCCN4CCCC4)c4c3CN(S(C)(=O)=O)CC4)ccc2Cl)c1 [Example 9, (S)-2′-Chloro-5′-[5-methanesulfonyl-1-(3-pyrrolidin-1-yl-propyl)-4,5,6,7-tetrahydro-1H-pyrazolo[4,3-c]pyridin-3-yl]-biphenyl-3-carboxylic acid [2-(5-fluoro-2,3-dihydro-indol-1-yl)-1-methyl-ethyl]-amide] | 138 nM |
| CC(=O)N1CCc2c(c(-c3ccc(Cl)c(-c4cccc(C(=O)NCCN5CCc6cc(C)ccc65)c4)c3)nn2CCCN2CCCC2)C1 [Example 40, 5′-[5-Acetyl-1-(3-pyrrolidin-1-yl-propyl)-4,5,6,7-tetrahydro-1H-pyrazolo[4,3-c]pyridin-3-yl]-2′-chloro-biphenyl-3-carboxylic acid [2-(5-methyl-2,3-dihydro-indol-1-yl)-ethyl]-amide] | 228 nM |
| Cc1ccc(NCCNC(=O)c2cccc(-c3cc(-c4nn(CCCN5CCCC5)c5c4CN(S(C)(=O)=O)CC5)ccc3Cl)c2)cc1 [Example 2, 2′-Chloro-5′-[5-methanesulfonyl-1-(3-pyrrolidin-1-yl-propyl)-4,5,6,7-tetrahydro-1H-pyrazolo[4,3-c]pyridin-3-yl]-biphenyl-3-carboxylic acid (2-p-tolylamino-ethyl)-amide] | 345 nM |
| CS(=O)(=O)N1CCc2c(c(-c3ccc(Cl)c(-c4cccc(C(=O)NCc5nc(-c6ccccc6)cs5)c4)c3)nn2CCCN2CCCC2)C1 [Example 23, 2′-Chloro-5′-[5-methanesulfonyl-1-(3-pyrrolidin-1-yl-propyl)-4,5,6,7-tetrahydro-1H-pyrazolo[4,3-c]pyridin-3-yl]-biphenyl-3-carboxylic acid (4-phenyl-thiazol-2-ylmethyl)-amide] | 88.9 nM |

The next lines start with the values.

| Ki | SMILES |
| --- | --- |
| 85 nM | COc1ccc(NCCNC(=O)c2cccc(-c3cc(-c4nn(CCCN5CCCC5)c5c4CN(S(C)(=O)=O)CC5)ccc3Cl)c2)cc1 [Example 1, 2′-Chloro-5′-[5-methanesulfonyl-1-(3-pyrrolidin-1-yl-propyl)-4,5,6,7-tetrahydro-1H-pyrazolo[4,3-c]pyridin-3-yl]-biphenyl-3-carboxylic acid [2-(4-methoxy-phenylamino)-ethyl]-amide] |
| 30.4 nM | COc1ccc(NCCNC(=O)c2cccc(-c3cc(-c4nn(CCCN5CCC(O)C5)c5c4CNCC5)ccc3Cl)c2)cc1 (stereo not drawn) [Example 44, 2′-Chloro-5′-{1-[3-(3-hydroxy-pyrrolidin-1-yl)-propyl]-4,5,6,7-tetrahydro-1H-pyrazolo[4,3-c]pyridin-3-yl}-biphenyl-3-carboxylic acid [2-(4-methoxy-phenylamino)-ethyl]-amide] |
| 19.5 nM | COc1ccc(NCCNC(=O)c2cccc(-c3cc(-c4nn(CCCN5CCC(O)C5)c5c4CN(S(C)(=O)=O)CC5)ccc3Cl)c2)cc1 (stereo not drawn) [Example 28, 2′-Chloro-5′-{1-[3-(3-hydroxy-pyrrolidin-1-yl)-propyl]-5-methanesulfonyl-4,5,6,7-tetrahydro-1H-pyrazolo[4,3-c]pyridin-3-yl}-biphenyl-3-carboxylic acid [2-(4-methoxy-phenylamino)-ethyl]-amide] |
